The values that follow come from patent publication US20210030646A1, “AN ANTIMICROBIAL COMPOSITION COMPRISING ESSENTIAL OIL AND ANTIMICROBIAL LIPID” (Conopco, Inc., d/b/a UNILEVER, priority 2017, published 2021).

Each structure is given as a SMILES string.

The test relates to P. acnes (ATCC 6919). Description: ΣFIC assay against P. acnes (checkerboard MIC, alamar blue). Type of test: cell-based, Propionibacterium acne (P. acnes). As to conditions: P. acnes ATCC 6919 in LB, anaerobic 37° C. 50 hours, lowest concentration giving complete growth inhibition; for MIC: Cutibacterium acnes, ATCC6919, single active alone, read-out: MIC (Minimum Inhibition Concentration). The protocol:
Synergistic interaction between the essential oil active and the AML compounds was determined using the ΣFIC assay against P. acnes. A brief description of the method is given below.
Methods: ΣFIC Assay Against P. acnes
P. acnes (ATCC 6919) is inoculated on Reinforced Clostridial Medium Agar plate (RCMA, solution A) and cultured anaerobically in an anaerobic jar at 37° C. for 72 to 96 hours. A single colony was cultured into Reinforced Clostridial Medium (RCM, solution B) and incubated anaerobically at 37° C. for 72 to 96 hours. Final cell density is adjusted to around 5×10^7 cells/ml by diluting using RCM. Then the inoculum is further diluted 1:1000 into Luria-Bertani medium (LB, solution C) to get around 5*10^4 cell/ml.
Essential oil active was serially diluted (2-fold) to prepare in a range of 10 to 10,000 ppm in the LB growth medium. The AML compound was serially diluted (2-fold) to prepare in a range of 15.6 to 1000 ppm for sapienic acid, and palmitoleic acid; and 2-125 ppm for other AMLs in the LB growth medium.
Binary combinations of essential oil and AML compound were prepared in 96-well plate by mixing 20 μl of essential oil solution with 20 μl of AML compound. The solution in each well were further mixed with 160 μl of P. acnes in LB. The final cell density in the testing plate is around 4*10^4 cell/ml, and the final concentration of actives in each well of the 96-well plate were shown below.
The fatty acid AML sapienic acid and palmitoleic acid compound concentrations (in ppm): 100, 50, 25, 12.5, 6.25, 3.13, 1.56, and 0. The sphingosine AML compound concentrations (in ppm): 12.5, 6.3, 3.1, 1.6, 0.8, 0.4, 0.2 and 0.
The plate was incubated anaerobically at 37° C. for 50 hours. Then 20 μl of alamar blue (0.01%) was added into each well with a further incubation aerobically for two to three days to observe the color change. Red color indicates microbial growth and the non-changing blue color indicates no growth. In addition, it was also confirmed that the testing compound alone will not cause color change of alamar blue with a control mixture without adding microbes.
The MIC is defined as the absolute lowest concentration of active that provides complete microbial growth inhibition as indicated by the blue color of alamar blue under the tested condition.
The differing behaviour of inhibitory antimicrobials in isolation and mixtures have been widely explored using the concept of the Fractional Concentration (FC) and Fractional Inhibitory Concentration (FIC). The parameter can be defined as follows: […]
These relationships can be expressed mathematically by summing the fractional MIC values for all the components present in the mixture to give the “fractional inhibition index”. There is no consistent approach in the academic or patent literature in defining precise limiting ΣFIC values that differentiate synergy from additivity or antagonism. In this study, we have adopted a liberal approach defining any binary mixture with ΣFIC<0.9 as showing evidence of synergistic behavior.
ΣFIC=FIC (component 1)+FIC (component 2)
ΣFIC=1 corresponds to additive microbial activity
ΣFIC>1 corresponds to antagonistic microbial activity
ΣFIC<0.9 corresponds to synergistic microbial activity
Based on the concentration range of the essential oil actives (0 to 1000 ppm) and the AML compound (0 to 100 ppm) at which the experiments were carried out, the ΣFIC of the combinations is given below in Table-1.
In general terms: Resazurin is reduced to fluorescent resorufin, in cell work by metabolically active cells.

Regarding `CCCCCCCCCCCCCCC[C@@H](O)[C@@H](N)CO` [dihydrosphingosine], the “MIC (Minimum Inhibition Concentration)” value (single active alone) came out at 0.2 ppm.
With `CCCCCC/C=C\CCCCCCCC(=O)O` [palmitoleic acid], the MIC is 1 µg/mL.
Same read-out and setting: to `CCCCCCCCCCCCCC[C@@H](O)[C@@H](O)[C@@H](N)CO` [phytosphingosine] belongs 0.2 µg/mL; to `CCCCCCCCCCCCC/C=C/[C@@H](O)[C@@H](N)CO` [sphingosine], 0.4 µg/mL; to `Cc1ccc(C(C)C)c(O)c1` [thymol], 62.5 µg/mL.
